In patent US8796323B2, “Defensin-like molecules as novel antimicrobial agents” (University of Maryland, Baltimore, priority 2010, dated 2014):
Entries after “also recorded” stand apart in the source; their conditions may differ.

Columns and labels:
[1] = system: Staphylococcus aureus ATCC 29213; experiment: 96-well turbidimetric antibacterial activity assay of HNP1, with or without Lipid II synthesis inhibitors; assay type: cell-based
Protocol: The antibacterial activity of HNP1 against Staphylococcus aureus ATCC 29213 was carried out in a 96-well turbidimetric assay essentially as described in Ericksen, B., et al., 2005, “Antibacterial activity and specificity of the six human {alpha}-defensins.” Lipid II levels in S. aureus were manipulated by the addition of three different inhibitors of cell wall synthesis: bacitracin (250 μg/ml), D-cycloserine (64 μg/ml) and fosfomycine (250 μg/ml). Bacterial cultures were pretreated with these compounds for 30 min under shaking at 37° C. […] Bacterial growth was monitored for 12 hours and data were analyzed as described.
To examine whether the observed interaction between HNP1 and Lipid II is functionally relevant in the environment of the membrane, the inventors determined the ability of HNP1 to kill S. aureus with altered levels of Lipid II. Three different inhibitors of cell wall synthesis, fosfomycine, D-cycloserine, and bacitracin, were used to reduce the lipid II levels in S. aureus cells. Bacitracin binds directly to undecaprenyl pyrophosphate, the portion of lipid II that remains in the membrane once GlcNAc-MurNAc is polymerized, and prevents its use in subsequent cycles of lipid II synthesis. Fosfomycine is an inhibitor of MurA, the enzyme responsible for the first step in peptidoglycan synthesis. D-Cycloserine inhibits both alanine racemase and D-Ala-D-Ala ligase, two enzymes required for the synthesis of the D-Ala-D-Ala dipeptide of lipid II. All three inhibitors thus block the synthesis of lipid II (Lunde, C. S., et al., 2009, “Telavancin disrupts the functional integrity of the bacterial membrane through targeted interaction with the cell wall precursor lipid II,” Antimicrob Agents Chemother 53:3375-3383.) S. aureus cells were exposed to each of the Lipid II synthesis inhibitors for 30 min and subsequently exposed to HNP1 at concentrations ranging from 256 to 1 μg/ml for 15 min (FIG. 4).
Survival curves of S. aureus ATCC 29213 exposed to HNP1 at concentrations varying two-fold from 1 to 256 μg/ml. […] Points scored as zero survival could not be plotted.

S. aureus = conditions: literature (Ericksen 2005; Wei 2009); cited from earlier work
[2] = ANTS/DPX leakage assay from large unilamellar vesicles
Protocol: Large unilamellar vesicles (LUVs) with the low molecular weight fluorophore/quencher pair (ANTS/DPX) encapsulated were prepared using the standard extrusion method. Specifically, phospholipids were dissolved in chloroform at a desired molar ratio, dried as a film by solvent evaporation. After removal of residual solvent, the lipid film was hydrated in the fluorescent solution containing 5 mM HEPES, 12.5 mM ANTS, 45 mM DPX, and 20 mM NaCl, pH 7.0, freeze-thawed for 10 cycles and extruded 10 times through 0.4-μm polycarbonate membranes. LUVs were separated from unencapsulated materials by gel filtration chromatography using a Sepharose CL-4B column eluted with 5 mM HEPES, 100 mM NaCl, pH 7.4 (high-salt). For leakage assays in a low-salt buffer, purified vesicles were further diluted with 5 mM HEPES containing 10 mM NaCl, pH 7.4.
Leakage of ANTS from LUVs, monitored on a LS-55 Perkin Elmer luminescence spectrometer, was characterized by an increase in fluorescence, which was quenched by DPX when encapsulated together inside liposomes (Ellens, H., et al., 1985, “H+- and Ca2+-induced fusion and destabilization of liposomes,” Biochemistry 24:3099-3106). 270 μl ANTS/DPX-encapsulated LUVs (in either high-salt or low-salt buffers) were added to each well of a 96-well plate to a final lipid concentration of 600 μM. 30 μl H2O was added to the first well of each row as a blank, and 30 μl 2.5% (v/v) Triton X-100 to the last (twelfth) well as the control for 100% leakage. Upon addition of 30 μl of a twofold dilution series of defensin, the fluorescence signal was recorded at 515 nm with an excitation wavelength of 353 nm, 10 nm bandwidths and a 390 nm cut-off filter in the emission path. Percent leakage is expressed as: % leakage=((Ft−F0)/(F100−F0))×100 where Ft is the fluorescence determined at different time points after addition of defensin, F0 is the background fluorescence of the “blank” cells, and F100 is the fluorescence of the control cells containing 0.25% Triton X-100. Lipid II Purification
Defensins are believed to kill bacteria by permeabilizing the membrane, causing leakage of intracellular content and eventually cell lysis and death. The present inventors tested the ability of six human α-defensins to induce leakage of fluorophores encapsulated in LUVs (See FIG. 1). […] (A) At high salt concentration (5 mM HEPES, 100 mM NaCl, pH 7.4). (B) At low salt concentration (5 mM HEPES, 10 mM NaCl, pH 7.4). LUVs were 250 nm in diameter and 600 μM (phospholipids) in concentration.
(A) Effects of surface charge on HNP1-induced leakage from LUVs of four different compositions: POPC (circle, surface charge=0), POPC/POPG=3:2 (square, surface charge=−0.4), POPC/POPG=2:3 (triangle, surface charge=−0.6), and POPG (diamond, surface charge=−1). (B) LUV (POPG:DPPC 1:1) leakage induced by L-HNP1 (circles) or D-HNP1 (squares). A two-fold dilution series of HNP1 peptides from 0.19 to 100 μg/ml was incubated with 600 μM LUVs for one hour before readings were taken. Error bars indicate the standard error in triplicate experiments.

For “HNP1: α-defensin Human Neutrophil Peptide 1, chemically synthesized and folded”, the “killing of S. aureus” value ([1]; 15 min exposure to HNP1) was “efficiently killed S. aureus”, the “killing of S. aureus by HNP-1 after pre-treatment with Lipid II synthesis inhibitors, 2 hours exposure” value ([1]; HNP-1 exposure 2 hours, data not shown) was “no difference in bacterial killing” and the “killing of S. aureus by HNP1 after pre-treatment with Lipid II synthesis inhibitors” value ([1]; fosfomycine, D-cycloserine, bacitracin 30 min pre-treatment, HNP1 15 min) was “attenuated killing of S. aureus by HNP1 markedly”. The “bactericidal activity against S. aureus / Gram-positive bacteria” value (S. aureus) was “potently bactericidal; also recorded: kills Gram-positive bacteria very efficiently”, the “leakage from LUVs, L- versus D-enantiomer” value ([2]; DPPC/POPG (1:1) LUVs, FIG. 2B) was “equally efficiently” and the “HNP1-induced leakage from LUVs composed solely of neutral lipid POPC” value ([2]; POPC LUVs, surface charge 0, 0.19 to 100 μg/ml, regardless of incubation time) was “resistant to the attack by HNP1 at all concentrations used”. The “HNP1-induced leakage from LUVs as POPG content increases” value ([2]; POPC:POPG 1:0, 3:2, 2:3, 0:1, POPG 0, 40%, 60%, 100%) was “increasingly pronounced” and the “membrane activity (leakage of ANTS-DPX from POPG LUVs)” value ([2]; POPG LUVs, panel of six human α-defensins, FIG. 1) was “reduced”.
